Data: article PMC5776679 (Journal of medicinal chemistry, 2016)
Like-named read-outs stand apart in the source and are kept apart here.

Assays:
[1] = clinical trials; cited from earlier work
[2] = test system: HIV-1; conditions: for EC50: read-out: EC50 (PBMCs) HIV-1
[3] = test system: HBV; conditions: therapeutic index at the EC50, HepG2
[4] = test system: HepG2; experiment: Cytotoxicity in uninfected HepG2 cells; conditions: read-out: CC50 (HepG2), concentration required to reduce the viability of uninfected cells by 50%, triplicate
[5] = test system: PBMCs; experiment: Cytotoxicity in uninfected PBMCs; conditions: read-out: CC50 (PBMCs), concentration required to reduce the viability of uninfected cells by 50%, triplicate
[6] = phase I, preliminary data on Chimerix's website; cited from earlier work
[7] = monkeys; cited from earlier work
[8] = rats; cited from earlier work
[9] = Stability in PBS; conditions: all examined media except human serum
[10] = in vitro; conditions: human
[11] = test system: HepG2; conditions: human
[12] = therapeutic index at the EC50, PBMCs

Compound	TI (CC50/EC50) HIV-1 [2]	EC50 [2]	TI (CC50/EC50) HBV [3]	other results
CC(C)OC(=O)[C@H](C)N[P@](=O)(CO[C@H](C)Cn1cnc2c(N)ncnc21)Oc1ccccc1 [TAF, tenofovir-alafenamide]				nephrotoxicity [1]: little to no nephrotoxicity
2-(Decyldisulfanyl)ethyl (2-(Decylsulfinothioyl)ethyl) ((((R)-1-(6-Amino-9H-purin-9-yl)propan-2-yl)oxy)methyl)phosphonate [13a]	>287	0.349 µM	>1	CC50 [4]: > 100 µM; CC50 [5]: > 100 µM
2-(Hexadecyldisulfanyl)ethyl Octyl ((((R)-1-(6-Amino-9H-purin-9-yl)propan-2-yl)oxy)methyl)phosphonate [compound 22]	>50	0.911 µM		
C[C@H](Cn1cnc2c(N)ncnc21)OCP(=O)(O)O [TFV, Tenofovir, reference compound]	>300			
2-(Tetradecyldisulfanyl)ethyl (2-(Tetradecylsulfinothioyl)ethyl) ((((R)-1-(6-Amino-9H-purin-9-yl)propan-2-yl)oxy)methyl)-phosphonate [13c]	>529	0.189 µM	>1	CC50 [4]: > 100 µM; CC50 [5]: > 100 µM
CCCCCCCCCCSSCCOP(=O)(O)CO[C@H](C)Cn1cnc2c(N)ncnc21.N [12a, 2-(Decyldisulfanyl)ethyl Hydrogen ((((R)-1-(6-Amino-9H-purin-9-yl)propan-2-yl)oxy)methyl)phosphonate]			>1	TI (CC50/EC50) HIV-1 [2, 12]: >590
2-(Hexadecyldisulfanyl)ethyl (2-(Hexadecylsulfinothioyl)ethyl) ((((R)-1-(6-Amino-9H-purin-9-yl)propan-2-yl)oxy)methyl)-phosphonate [13d]	4.0	6.32 µM	>1	CC50 [4]: > 25 µM; CC50 [5]: > 25 µM
CCCCCCCCCCCCCCCCSSCCOP(=O)(O)CO[C@H](C)Cn1cnc2c(N)ncnc21.N [12d, 2-(Hexadecyldisulfanyl)ethyl Hydrogen ((((R)-1-(6-Amino-9H-purin-9-yl)propan-2-yl)oxy)methyl)phosphonate]			>1200	
2-(Dodecyldisulfanyl)ethyl (2-(Dodecylsulfinothioyl)ethyl) ((((R)-1-(6-Amino-9H-purin-9-yl)propan-2-yl)oxy)methyl)phosphonate [13b]	>85.0	1.18 µM	>1	CC50 [4]: > 100 µM; CC50 [5]: > 100 µM
CCCCCCCCCCCCCCCCOCCCOP(=O)(O)CO[C@H](C)Cn1cnc2c(N)ncnc21 [compound 1, hexadecyloxypropyl-tenofovir, reference compound]	>5000			tolerability [6]: well-tolerated
C[C@H](Cn1cnc2c(N)ncnc21)OCP(=O)(O)OCCS [compound 9, 2-Mercaptoethyl Hydrogen ((((R)-1-(6-Amino-9H-purin-9-yl)-propan-2yl)oxy)methyl)phosphonate]	>5.38		>2.4	
2-(Octadecyldisulfanyl)ethyl (2-(Octadecylsulfinothioyl)ethyl) ((((R)-1-(6-Amino-9H-purin-9-yl)propan-2-yl)oxy)methyl)-phosphonate [13e]	>76	0.331 µM	>1	CC50 [4]: > 25 µM; CC50 [5]: > 25 µM
CCCCCCCCCCCCSSCCOP(=O)(O)CO[C@H](C)Cn1cnc2c(N)ncnc21.N [12b, 2-(Dodecyldisulfanyl)ethyl Hydrogen ((((R)-1-(6-Amino-9H-purin-9-yl)propan-2-yl)oxy)methyl)phosphonate]			>30	
Nc1ncnc2c1ncn2CCOCP(=O)(O)O [adefovir]				bioavailability [7]: < 1%; bioavailability [8]: 8–11%
CCCCCCCCCCCCCCCCCCSSCCOP(=O)(O)CO[C@H](C)Cn1cnc2c(N)ncnc21.N [12e, 2-(Octadecyldisulfanyl)ethyl Hydrogen ((((R)-1-(6-Amino-9H-purin-9-yl)propan-2-yl)oxy)methyl)phosphonate]			>50	
C[C@H](Cn1cnc2c(N)ncnc21)OCP(=O)(O)OCCSSCCO [DTE–TFV, 2-((2-Hydroxyethyl)disulfanyl)ethyl Hydrogen ((((R)-1-(6-Amino-9H-purin-9-yl)propan-2-yl)oxy)methyl)phosphonate]	>62.1		>8.6	
CCCCCCCCCCCCCCSSCCOP(=O)(O)CO[C@H](C)Cn1cnc2c(N)ncnc21.N [12c, 2-(Tetradecyldisulfanyl)ethyl Hydrogen ((((R)-1-(6-Amino-9H-purin-9-yl)propan-2-yl)oxy)methyl)phosphonate]			>56	TI (CC50/EC50) HIV-1 [2, 12]: 28000; fold stability increase over 12d [9]: ~2 fold
CC(C)OC(=O)OCOP(=O)(CO[C@H](C)Cn1cnc2c(N)ncnc21)OCOC(=O)OC(C)C.O=C(O)/C=C/C(=O)O [TDF, tenofovir disoproxil fumarate]				CC50 [10]: 29.2 µM; CC50 [11]: 64.5 µM
